Patent US20200288710A1, “SUBSTITUTED SULPHONAMIDES FOR CONTROLLING ANIMAL PESTS” (BAYER CROPSCIENCE AKTIENGESELLSCHAFT, priority 2016, published 2020)

Key:
[1] = system: Myzus persicae; experiment: Myzus persicae spray test (Chinese cabbage leaf discs); assay type: in vivo; conditions: foliar, 120 h, 500 g/ha, after 5-6 days, read-out: efficacy
Procedure: Myzus persicae—Spray Test Solvent: 78 parts by weight of acetone • • 1.5 parts by weight of dimethylformamide Emulsifier: alkylaryl polyglycol ether To produce a suitable preparation of active compound, 1 part by weight of active compound is dissolved using the specified parts by weight of solvent and made up with water containing an emulsifier concentration of 1000 ppm until the desired concentration is attained. To produce further test concentrations, the formulation is diluted with emulsifier-containing water. Discs of Chinese cabbage leaves (Brassica pekinensis) infested by all stages of the green peach aphid (Myzus persicae) are sprayed with an active compound preparation of the desired concentration. After 5-6 days, the efficacy in % is determined. 100% means that all the aphids have been killed; 0% means that no aphids have been killed.

[2] = system: Myzus persicae; experiment: Myzus persicae oral test; assay type: in vivo; conditions: 120 h, 20 ppm, oral uptake, after 5 days, read-out: efficacy
Procedure: Myzus persicae—Oral Test Solvent: 100 parts by weight of acetone To produce a suitable preparation of active compound, 1 part by weight of active compound is dissolved using the specified parts by weight of solvent and made up with water until the desired concentration is attained. 50 μl of the active compound preparation are transferred into microtitre plates and made up to a final volume of 200 μl with 150 μl of IPL41 insect medium (33%+15% sugar). Subsequently, the plates are sealed with parafilm, which a mixed population of green peach aphids (Myzus persicae) within a second microtitre plate is able to puncture and imbibe the solution through it. After 5 days, the efficacy in % is determined. 100% means that all the aphids have been killed; 0% means that no aphids have been killed.

## COc1ccccc1S(=O)(=O)NC(=O)c1cn(C)c(-c2c(F)cc(F)cc2F)n1 [Example 7]
[1]
  pest or weed control at 500 g/ha: 90%
[2]
  pest or weed control at 20 ppm: 90%

## Cn1nc(C(=O)NS(=O)(=O)c2ccccc2Cl)nc1-c1c(F)cccc1F [Example 11]
[1]
  pest or weed control at 500 g/ha: 100%
[2]
  pest or weed control at 20 ppm: 100%

## COc1ccc(Cl)c(S(=O)(=O)NC(=O)c2nc(-c3c(F)cccc3F)n(C)n2)c1 [Example 12]
[1]
  pest or weed control at 500 g/ha: 90%
[2]
  pest or weed control at 20 ppm: 90%

## COc1ccc(F)cc1S(=O)(=O)NC(=O)c1cn(C)c(-c2c(F)cccc2F)n1 [Example 17]
[1]
  pest or weed control at 500 g/ha: 90%
[2]
  pest or weed control at 20 ppm: 100%

## COc1ccc(OC)c(S(=O)(=O)NC(=O)c2cn(C)c(-c3c(F)cccc3F)n2)c1 [Example 19]
[1]
  pest or weed control at 500 g/ha: 90%
[2]
  pest or weed control at 20 ppm: 100%

## CCn1cc(C(=O)NS(=O)(=O)c2ccccc2C)nc1-c1ccccc1Cl [Example 22]
[1]
  pest or weed control at 500 g/ha: 100%
[2]
  pest or weed control at 20 ppm: 100%

## Cn1cc(C(=O)NS(=O)(=O)c2ccccc2C(F)(F)F)nc1-c1c(F)cccc1F [Example 26]
[1]
  pest or weed control at 500 g/ha: 100%
[2]
  pest or weed control at 20 ppm: 100%

## Cc1ccccc1-c1nc(C(=O)NS(=O)(=O)c2ccccc2C(F)(F)F)cn1C [Example 28]
[1]
  pest or weed control at 500 g/ha: 100%
[2]
  pest or weed control at 20 ppm: 100%

## Cn1cc(C(=O)NS(=O)(=O)c2ccccc2C(F)(F)F)nc1-c1ccccc1F [Example 30]
[1]
  pest or weed control at 500 g/ha: 90%
[2]
  pest or weed control at 20 ppm: 100%

## Cn1cc(C(=O)NS(=O)(=O)c2c(F)cccc2F)nc1-c1ccccc1Cl [Example 53]
[1]
  pest or weed control at 500 g/ha: 100%
[2]
  pest or weed control at 20 ppm: 100%

## Cn1cc(C(=O)NS(=O)(=O)c2ccccc2F)nc1-c1ccccc1Cl [Example 57]
[1]
  pest or weed control at 500 g/ha: 100%
[2]
  pest or weed control at 20 ppm: 100%

## COc1ccccc1S(=O)(=O)NC(=O)c1cn(C)c(-c2ccccc2Cl)n1 [Example 59]
[1]
  pest or weed control at 500 g/ha: 90%
[2]
  pest or weed control at 20 ppm: 100%

## Cn1cc(C(=O)NS(=O)(=O)CC(F)(F)F)nc1-c1ccccc1Cl [Example 66]
[1]
  pest or weed control at 500 g/ha: 100%
[2]
  pest or weed control at 20 ppm: 100%

## CCS(=O)(=O)NC(=O)c1cn(-c2ccccc2)c(-c2ccccc2Cl)n1 [Example 75]
[1]
  pest or weed control at 500 g/ha: 100%
[2]
  pest or weed control at 20 ppm: 90%

## Cn1cc(C(=O)NS(=O)(=O)c2ccccc2Cl)nc1-c1c(F)cccc1F [Example 91]
[1]
  pest or weed control at 500 g/ha: 90%
[2]
  pest or weed control at 20 ppm: 100%

## Cn1cc(C(=O)NS(=O)(=O)c2ccccc2Cl)nc1-c1ccccc1F [Example 94]
[1]
  pest or weed control at 500 g/ha: 100%
[2]
  pest or weed control at 20 ppm: 100%

## COc1ccc(Cl)c(S(=O)(=O)NC(=O)c2cn(C)c(-c3ccccc3F)n2)c1 [Example 95]
[1]
  pest or weed control at 500 g/ha: 90%
[2]
  pest or weed control at 20 ppm: 100%

## Cc1ccccc1-c1nc(C(=O)NS(=O)(=O)c2ccccc2Cl)cn1C [Example 97]
[1]
  pest or weed control at 500 g/ha: 100%
[2]
  pest or weed control at 20 ppm: 100%

## Cc1ccccc1S(=O)(=O)NC(=O)c1cn(C)c(-c2c(F)cccc2Cl)n1 [Example 110]
[1]
  pest or weed control at 500 g/ha: 90%
[2]
  pest or weed control at 20 ppm: 100%

## COc1ccccc1S(=O)(=O)NC(=O)c1cn(C)c(-c2c(F)cccc2Cl)n1 [Example 111]
[1]
  pest or weed control at 500 g/ha: 100%
[2]
  pest or weed control at 20 ppm: 100%

## Cn1cc(C(=O)NS(=O)(=O)c2ccccc2)nc1-c1c(F)cccc1Cl [Example 112]
[1]
  pest or weed control at 500 g/ha: 90%
[2]
  pest or weed control at 20 ppm: 100%

## Cn1cc(C(=O)NS(=O)(=O)c2ccccc2Cl)nc1-c1ccccc1C(F)(F)F [Example 115]
[1]
  pest or weed control at 500 g/ha: 100%
[2]
  pest or weed control at 20 ppm: 90%

## COc1ccccc1S(=O)(=O)NC(=O)c1cn(C)c(-c2c(F)cccc2F)n1 [Example 116]
[1]
  pest or weed control at 500 g/ha: 100%
[2]
  pest or weed control at 20 ppm: 100%

## Cn1cc(C(=O)NS(=O)(=O)c2ccccc2F)nc1-c1c(F)cccc1F [Example 117]
[1]
  pest or weed control at 500 g/ha: 100%
[2]
  pest or weed control at 20 ppm: 90%

## CCc1[nH]c(-c2c(F)cccc2F)nc1C(=O)NS(=O)(=O)c1ccccc1Cl [Example 124]
[1]
  pest or weed control at 500 g/ha: 90%
[2]
  pest or weed control at 20 ppm: 100%

## CCc1[nH]c(-c2c(F)cccc2F)nc1C(=O)NS(=O)(=O)c1ccccc1C [Example 125]
[1]
  pest or weed control at 500 g/ha: 90%
[2]
  pest or weed control at 20 ppm: 100%

## CCc1[nH]c(-c2c(F)cccc2F)nc1C(=O)NS(=O)(=O)C(C)C [Example 126]
[1]
  pest or weed control at 500 g/ha: 90%
[2]
  pest or weed control at 20 ppm: 90%

## Cc1ccccc1S(=O)(=O)NC(=O)c1nc(-c2c(F)cccc2F)c(C)[nH]1 [Example 147]
[1]
  pest or weed control at 500 g/ha: 100%
[2]
  pest or weed control at 20 ppm: 100%

## COc1ccc(Cl)c(S(=O)(=O)NC(=O)c2nc(-c3c(F)cccc3F)c(C)[nH]2)c1 [Example 148]
[1]
  pest or weed control at 500 g/ha: 90%
[2]
  pest or weed control at 20 ppm: 100%

## COCCS(=O)(=O)NC(=O)c1cn(C)c(-c2c(F)cccc2Cl)n1 [Example 150]
[1]
  pest or weed control at 500 g/ha: 90%
[2]
  pest or weed control at 20 ppm: 90%

## COc1ccc(F)c(S(=O)(=O)NC(=O)c2cn(C)c(-c3c(F)cccc3Cl)n2)c1 [Example 157]
[1]
  pest or weed control at 500 g/ha: 100%
[2]
  pest or weed control at 20 ppm: 100%

## Cc1ccccc1S(=O)(=O)NC(=O)c1nc(-c2c(F)cccc2F)n(C)n1 [Example 159]
[1]
  pest or weed control at 500 g/ha: 90%
[2]
  pest or weed control at 20 ppm: 100%

## Cn1c(C(=O)NS(=O)(=O)c2ccccc2Br)cnc1-c1c(F)cccc1F [Example 162]
[1]
  pest or weed control at 500 g/ha: 90%
[2]
  pest or weed control at 20 ppm: 100%

## Cn1cc(C(=O)NS(=O)(=O)c2cc(Cl)cc(Cl)c2)nc1-c1ccccc1Cl [Example 166]
[1]
  pest or weed control at 500 g/ha: 90%

## Cn1cc(C(=O)NS(=O)(=O)c2cccc(C#N)c2)nc1-c1ccccc1Cl [Example 167]
[1]
  pest or weed control at 500 g/ha: 90%

## Cn1cc(C(=O)NS(=O)(=O)c2ccc(C#N)cc2)nc1-c1ccccc1Cl [Example 168]
[1]
  pest or weed control at 500 g/ha: 90%

## COc1ccc(F)c(S(=O)(=O)NC(=O)c2cn(C)c(-c3c(F)cccc3F)n2)c1 [Example 170]
[1]
  pest or weed control at 500 g/ha: 90%
[2]
  pest or weed control at 20 ppm: 100%

## CCn1cc(S(=O)(=O)NC(=O)c2cn(C)c(-c3c(F)cccc3F)n2)c(C)n1 [Example 181]
[1]
  pest or weed control at 500 g/ha: 100%
[2]
  pest or weed control at 20 ppm: 90%

## CN(C)S(=O)(=O)NC(=O)c1cn(C)c(-c2ccccc2Cl)n1 [Example 204]
[1]
  pest or weed control at 500 g/ha: 100%

## Cn1cc(C(=O)NS(=O)(=O)c2sc(Cl)cc2Br)nc1-c1c(F)cccc1F [Example 211]
[1]
  pest or weed control at 500 g/ha: 100%
[2]
  pest or weed control at 20 ppm: 100%

## Cn1cc(C(=O)NS(=O)(=O)c2cnccc2Cl)nc1-c1ccccc1Cl [Example 220]
[1]
  pest or weed control at 500 g/ha: 100%
[2]
  pest or weed control at 20 ppm: 100%

## COc1ccc(Cl)c(S(=O)(=O)NC(=O)c2cnc(-c3cc(Cl)cc(Cl)c3)[nH]2)c1 [Example 224]
[1]
  pest or weed control at 500 g/ha: 90%

## Cn1cc(C(=O)NS(=O)(=O)c2ccccc2)nc1-c1ccccc1Cl [Example 229]
[1]
  pest or weed control at 500 g/ha: 100%

## Cc1cc(C(=O)NS(=O)(=O)c2c(Cl)cccc2Cl)nn1-c1ncccc1Cl [Example 268]
[1]
  pest or weed control at 500 g/ha: 90%
[2]
  pest or weed control at 20 ppm: 100%

## CCc1ccc(OC)c(S(=O)(=O)NC(=O)c2cn(C)c(-c3ccccc3Cl)n2)c1 [Example 278]
[1]
  pest or weed control at 500 g/ha: 100%
[2]
  pest or weed control at 20 ppm: 100%

## Cc1ccccc1S(=O)(=O)NC(=O)c1cc(C)n(-c2ncccc2Br)n1 [Example 297]
[1]
  pest or weed control at 500 g/ha: 90%
[2]
  pest or weed control at 20 ppm: 100%

## Cc1nc(Cl)sc1S(=O)(=O)NC(=O)c1cn(C)c(-c2c(F)cccc2F)n1 [Example 346]
[1]
  pest or weed control at 500 g/ha: 90%

## Cn1cc(C(=O)NS(=O)(=O)c2cccs2)nc1-c1c(F)cccc1F [Example 349]
[1]
  pest or weed control at 500 g/ha: 100%

## COc1cccc(C(F)(F)F)c1S(=O)(=O)NC(=O)c1cn(C)c(-c2c(F)cccc2F)n1 [Example 374]
[1]
  pest or weed control at 500 g/ha: 100%

## CCc1ccc(OC)c(S(=O)(=O)NC(=O)c2cn(C)c(-c3c(F)cccc3F)n2)c1 [Example 391]
[1]
  pest or weed control at 500 g/ha: 90%

## Cn1cc(C(=O)NS(=O)(=O)c2cc(C(F)(F)F)ccc2C(F)(F)F)nc1-c1c(F)cccc1F [Example 400]
[1]
  pest or weed control at 500 g/ha: 90%

## Cn1cc(C(=O)NS(=O)(=O)c2cc(F)ccc2F)nc1-c1c(F)cccc1F [Example 455]
[1]
  pest or weed control at 500 g/ha: 90%

## Cc1ccccc1S(=O)(=O)NC(=O)c1cn(C)c(-c2ccccc2OC(F)(F)F)n1 [Example 458]
[1]
  pest or weed control at 500 g/ha: 90%

## Cc1ccccc1S(=O)(=O)NC(=O)c1cn(C)c(-c2cccnc2)n1 [Example 488]
[1]
  pest or weed control at 500 g/ha: 90%

## Cc1ccccc1S(=O)(=O)NC(=O)c1cn(C)c(-c2ccccn2)n1 [Example 493]
[1]
  pest or weed control at 500 g/ha: 100%

## COc1ccccc1S(=O)(=O)NC(=O)c1cn(C)c(-c2cc(F)ccc2F)n1 [Example 526]
[1]
  pest or weed control at 500 g/ha: 90%

## COc1ccccc1S(=O)(=O)NC(=O)c1cn(C)c(-c2ccccc2[N+](=O)[O-])n1 [Example 529]
[1]
  pest or weed control at 500 g/ha: 100%

## COc1ccc(OC)c(S(=O)(=O)NC(=O)c2cn(C)c(-c3ncccc3F)n2)c1 [Example 608]
[1]
  pest or weed control at 500 g/ha: 100%
